# Measurements as given in patent publication US12202805B2, “Process for preparing (5S)-{[2-(4-carboxyphenyl)ethyl] |2-(2-{|3-chloro-4'-(trifluoromethyl)biphenyl-4-yl]methoxy}phenyl)ethyl]aminol-5,6,7,8-tetrahydroquinoline-2-carboxylic acid and its crystalline forms for use as pharmaceutically active compound” (Bayer Aktiengesellschaft, priority 2021, dated 2025).
# Values joined by “and” are separate entries in the source; they are usually repeats but may differ in a detail not shown here. Identical values can stand only once.
# Tested on: thromboxane A2 challenged PAH-minipig
# Test: Haemodynamics in the anesthetized thromboxane challenged minipig, intratracheal dry powder (PAP, BP)
# Assay type: in vivo, Göttingen Minipigs
# Settings: 375 μg/kg i.t.
# Description: Healthy Göttingen Minipigs® Ellegaard (Ellegaard, Denmark) of both sexes and having a weight of 2-6 kg were used. The animals were sedated by i.m. administration of about 25 mg/kg ketamine and about 10 mg/kg azaperone. Anaesthesia was initiated by i.v. administration of about 2 mg/kg ketamine and about 0.3 mg/kg midazolam. Maintenance of anaesthesia was by i.v. administration of about 7.5-30 mg/kg/h ketamine and about 1-4 mg/kg/h midazolam (rate of infusion 1-4 ml/kg/h) and about 150 μg/kg/h pancuronium bromide (for example Pancuronium-Actavis). After intubation, the animals were ventilated by the ventilator at a constant respiratory volume (10-12 ml/kg, 35 breaths/min; Avea®, Viasys Healthcare, USA, or Engström Carestation, GE Healthcare, Freiburg, Germany) such that an end-tidal CO2 concentration of about 5% was achieved. Ventilation was performed with room air, enriched with about 40% oxygen (normoxia). For the measurement of the haemodynamic parameters such as pulmonary arterial pressure (PAP), blood pressure (BP) and heart rate (HR), catheters were inserted into the carotid artery to measure the blood pressure, and a Swan-Ganz® catheter was introduced in a flow-directed manner via the jugular vein into the pulmonary artery. The haemodynamic signals were recorded and evaluated by means of pressure transducers (Combitransducer, B. Braun, Melsungen, Germany)/amplifiers and Ponemah® as data acquisition software.
# As reference pure Lactose vehicle was applied in the beginning of each experiment.
smiles,measurement,setting,value
"O.O=C(O)c1ccc(CCN(CCc2ccccc2OCc2ccc(-c3ccc(C(F)(F)F)cc3)cc2Cl)[C@H]2CCCc3nc(C(=O)O)ccc32)cc1.O=C(O)c1ccc(CCN(CCc2ccccc2OCc2ccc(-c3ccc(C(F)(F)F)cc3)cc2Cl)[C@H]2CCCc3nc(C(=O)O)ccc32)cc1 [example 6a, (5S)—{[2-(4-Carboxyphenyl)ethyl][2-(2-{[3-chloro-4′-(trifluoromethyl)biphenyl-4-yl]methoxy}phenyl)-ethyl]amino}-5,6,7,8-tetrahydroquinoline-2-carboxylic acid semihydrate]","PAP, % changes vs. prevalues",time 160 min,59.9% and 77.1% and 73.1%
same,BP (mean),time 170 min,95 mmHg and 79 mmHg
same,"BP, % changes vs. prevalues",time 170 min,95.6% and 99.7% and 107.4%
same,PAP(mean),time 170 min,24.0 mmHg and 32.4 mmHg and 29.9 mmHg
same,"PAP, % changes vs. prevalues",time 170 min,58.6% and 76.7% and 72.3%
same,BP (mean),time 180 min,94 mmHg and 79 mmHg
same,"BP, % changes vs. prevalues",time 180 min,94.6% and 99.7% and 106.3%
same,PAP(mean),time 180 min,23.7 mmHg and 31.9 mmHg and 29.7 mmHg
same,"PAP, % changes vs. prevalues",time 180 min,58.0% and 75.4% and 71.8%
same,BP (mean),time 190 min,94 mmHg and 85 mmHg and 93 mmHg
same,"BP, % changes vs. prevalues",time 190 min,94.6% and 108.5% and 105.2%
same,PAP(mean),time 190 min,24.4 mmHg and 32.4 mmHg and 29.2 mmHg
same,"PAP, % changes vs. prevalues",time 190 min,59.5% and 78.4% and 70.7%
same,BP (mean),time 200 min,92 mmHg and 85 mmHg
same,"BP, % changes vs. prevalues",time 200 min,92.6% and 107.3% and 104.0%
same,PAP(mean),time 200 min,24.8 mmHg and 32.4 mmHg and 29.4 mmHg
same,"PAP, % changes vs. prevalues",time 200 min,60.5% and 76.8% and 71.1%
same,BP (mean),time 210 min,90 mmHg and 81 mmHg and 91 mmHg
same,"BP, % changes vs. prevalues",time 210 min,90.6% and 102.2% and 102.9%
same,PAP(mean),time 210 min,24.8 mmHg and 31.9 mmHg and 29.2 mmHg
same,"PAP, % changes vs. prevalues",time 210 min,60.6% and 75.5% and 70.8%
same,BP (mean),time 220 min,89 mmHg and 79 mmHg
same,"BP, % changes vs. prevalues",time 220 min,89.6% and 99.7% and 100.6%
same,PAP(mean),time 220 min,24.7 mmHg and 31.7 mmHg and 29.1 mmHg
same,"PAP, % changes vs. prevalues",time 220 min,60.3% and 75.1% and 70.3%
same,BP (mean),time 230 min,87 mmHg and 78 mmHg and 89 mmHg
same,"BP, % changes vs. prevalues",time 230 min,87.6% and 98.4% and 100.6%
same,PAP(mean),time 230 min,24.0 mmHg and 31.3 mmHg and 28.6 mmHg
same,"PAP, % changes vs. prevalues",time 230 min,58.7% and 74.1% and 69.1%
same,BP (mean),time 240 min,87 mmHg and 77 mmHg
same,"BP, % changes vs. prevalues",time 240 min,87.6% and 97.2% and 98.4%
same,PAP(mean),time 240 min,24.1 mmHg and 31.3 mmHg and 28.1 mmHg
same,"PAP, % changes vs. prevalues",time 240 min,58.9% and 74.2% and 68.0%
same,BP (mean),time 250 min,85 mmHg and 76 mmHg
same,"BP, % changes vs. prevalues",time 250 min,85.5% and 95.9% and 96.1%
same,PAP(mean),time 250 min,24.2 mmHg and 30.7 mmHg and 28.1 mmHg
same,"PAP, % changes vs. prevalues",time 250 min,59.0% and 72.7% and 67.9%
same,BP (mean),time 260 min,85 mmHg and 76 mmHg and 84 mmHg
same,"BP, % changes vs. prevalues",time 260 min,85.5% and 95.9% and 95.0%
same,PAP(mean),time 260 min,24.1 mmHg and 30.6 mmHg and 28.1 mmHg
same,"PAP, % changes vs. prevalues",time 260 min,58.8% and 72.5% and 68.0%
same,BP (mean),time 270 min,85 mmHg and 76 mmHg and 87 mmHg
same,"BP, % changes vs. prevalues",time 270 min,85.5% and 95.9% and 98.4%
same,PAP(mean),time 270 min,24.4 mmHg and 30.6 mmHg and 27.8 mmHg
same,"PAP, % changes vs. prevalues",time 270 min,59.6% and 72.4% and 67.3%
same,BP (mean),time 280 min,85 mmHg and 75 mmHg and 84 mmHg
same,"BP, % changes vs. prevalues",time 280 min,85.5% and 94.6% and 95.0%
same,PAP(mean),time 280 min,24.3 mmHg and 30.7 mmHg and 28.0 mmHg
same,"PAP, % changes vs. prevalues",time 280 min,59.3% and 72.6% and 67.8%
same,BP (mean),time 290 min,84 mmHg and 75 mmHg and 83 mmHg
same,"BP, % changes vs. prevalues",time 290 min,84.5% and 94.6% and 93.9%
same,PAP(mean),time 290 min,24.1 mmHg and 30.7 mmHg and 27.6 mmHg
same,"PAP, % changes vs. prevalues",time 290 min,58.8% and 72.6% and 66.7%
same,BP (mean),time 300 min,83 mmHg and 77 mmHg and 82 mmHg
same,"BP, % changes vs. prevalues",time 300 min,83.5% and 97.2% and 92.7%
same,PAP(mean),time 300 min,23.7 mmHg and 30.5 mmHg and 27.7 mmHg
same,"PAP, % changes vs. prevalues",time 300 min,57.9% and 72.2% and 67.1%
